# Where two headings read alike, the source gives them in different places.
# Key:
# [1] = system: serotonin (5-HT) uptake [セロトニン(5−HT)の取り込み]; assay: serotonin (5-HT) uptake inhibition; format: biochemical; settings: rat whole brain preparation, 3H-5-HT 10 nM, 37℃, 5 min
# [2] = system: norepinephrine (NE) uptake [ノルエピネフリン(NE)の取り込み]; assay: norepinephrine (NE) uptake inhibition; format: biochemical; settings: rat cerebral cortex, 3H-NE as substrate
# [3] = system: 45Ca2+ uptake [45Ca2+取り込み]; assay: 45Ca2+ uptake inhibition (veratrine-stimulated); format: biochemical; settings: 10 μM; rat cerebral cortex crude synaptosomes; veratrine 30 μM; 37℃, 10 min
# [4] = molecular target: T1, type B monoamine oxidase (MAO-B) [B型モノアミン酸化酵素(MAO−B)] (Rattus norvegicus, UniProt P19643); assay: biochemical
# T1 sequence (P19643 1-520): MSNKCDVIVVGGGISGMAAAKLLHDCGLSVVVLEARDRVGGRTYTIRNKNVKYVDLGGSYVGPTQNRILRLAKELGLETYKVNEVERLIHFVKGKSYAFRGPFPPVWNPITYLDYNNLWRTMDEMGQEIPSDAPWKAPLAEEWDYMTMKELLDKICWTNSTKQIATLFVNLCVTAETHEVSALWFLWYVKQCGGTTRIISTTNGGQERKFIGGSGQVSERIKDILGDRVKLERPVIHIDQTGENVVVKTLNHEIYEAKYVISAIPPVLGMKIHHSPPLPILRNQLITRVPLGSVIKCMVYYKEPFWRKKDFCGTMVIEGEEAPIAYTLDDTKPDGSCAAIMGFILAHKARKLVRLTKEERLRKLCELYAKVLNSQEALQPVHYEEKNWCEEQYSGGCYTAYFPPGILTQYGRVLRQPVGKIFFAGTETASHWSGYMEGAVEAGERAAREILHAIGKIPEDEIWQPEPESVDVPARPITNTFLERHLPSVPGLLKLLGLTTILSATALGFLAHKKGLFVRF
# [5] = MAO-B, rat whole brain homogenate, 14C-phenylethylamine 10 μM, 37℃, 5 min, read-out: IC50
SMILES,IC50 [1],IC50 [2],% inhibition rate (45Ca uptake) [3],"IC50 [4, 5]",IC50 [4]
"COc1ccc2c(c1)CCC1(CCCCN1CCOc1ccccc1)C2 (centres unmarked) [実施例5−10, 3,4−ジヒドロ−6−メトキシ−1′−(2−フェノキシエチル)スピロ〔ナフタレン−2(1H),2′−ピペリジン〕 塩酸塩]",9.6 nM,830 nM,88%,,
"CCCN1CCCCC12CCc1cc(OCc3ccccc3C#N)ccc1C2 (centres unmarked) [実施例9−20, 6−(2−シアノフェニルメトキシ)−3,4−ジヒドロ−1′−プロピルスピロ〔ナフタレン−2(1H),2′−ピペリジン〕 塩酸塩]",320 nM,54 nM,,,
"CCCN1CCCCC12CCc1cc(OCc3ccc(Cl)cc3)ccc1C2 (centres unmarked) [実施例9−8, 6−(4−クロロフェニルメトキシ)−3,4−ジヒドロ−1′−プロピルスピロ〔ナフタレン−2(1H),2′−ピペリジン〕 塩酸塩]",180 nM,35 nM,,,
"CCCN1CCCCC12CCc1cc(OCCc3ccccc3)ccc1C2 (centres unmarked) [実施例9−16, 3,4−ジヒドロ−6−(2−フェニルエトキシ)−1′−プロピルスピロ〔ナフタレン−2(1H),2′−ピペリジン〕 2塩酸塩]",,,,590 nM,
"COc1ccc2c(c1)CCC1(CCCCN1CCN1CCN(c3cccc(C(F)(F)F)c3)CC1)C2 (centres unmarked) [実施例7−6, 1′−〔2−(4−(3−トリフルオロメチルフェニル)ピペラジン−1−イル)エチル〕−3,4−ジヒドロ−6−メトキシスピロ〔ナフタレン−2(1H),2′−ピペリジン〕 2塩酸塩]",,,106%,,
"CCCN1CCCCC12CCc1cc(OCc3ccccc3C)ccc1C2 (centres unmarked) [実施例9−18, 3,4−ジヒドロ−6−(2−メチルフェニルメトキシ)−1′−プロピルスピロ〔ナフタレン−2(1H),2′−ピペリジン〕 塩酸塩]",,,,1490 nM,
"CCCN1CCCCC12CCc1cc(OCc3ccccc3Cl)ccc1C2 (centres unmarked) [実施例9−6, 6−(2−クロロフェニルメトキシ)−3,4−ジヒドロ−1′−プロピルスピロ〔ナフタレン−2(1H),2′−ピペリジン〕 塩酸塩]",,,,2510 nM,
"CCCN1CCCCC12CCc1cc(OCc3ccc(F)cc3)ccc1C2 (centres unmarked) [実施例9−21, 6−(4−フルオロフェニルメトキシ)−3,4−ジヒドロ−1′−プロピルスピロ〔ナフタレン−2(1H),2′−ピペリジン〕 塩酸塩]",340 nM,97 nM,,680 nM,
"NC(=O)CN1CCCCC12CCc1cc(OCc3ccc(F)cc3)ccc1C2 (centres unmarked) [実施例9−32, {6−(4−フルオロフェニルメトキシ−3,4−ジヒドロスピロ〔ナフタレン−2(1H),2′−ピペリジン〕}−1′−イルアセトアミド 塩酸塩]",,,,530 nM,
"COc1ccc2c(c1)CCC1(CCCCN1CCCC1CCN(Cc3ccccc3)CC1)C2 (centres unmarked) [実施例5−14, 3,4−ジヒドロ−6−メトキシ−1′−〔3−(1−フェニルメチルピペリジン−4−イル)プロピル〕スピロ〔ナフタレン−2(1H),2′−ピペリジン〕 2塩酸塩]",11 nM,180 nM,74%,,
"COc1ccc2c(c1)CCC1(CCCCN1CCCc1ccccc1)C2 (centres unmarked) [実施例5−9, 3,4−ジヒドロ−6−メトキシ−1′−(3−フェニルプロピル)スピロ〔ナフタレン−2(1H),2′−ピペリジン〕 塩酸塩]",,,92%,,
"CCCN1CCCCC12CCc1cc(OCc3ccccc3F)ccc1C2 (centres unmarked) [実施例9−19, 6−(2−フルオロフェニルメトキシ)−3,4−ジヒドロ−1′−プロピルスピロ〔ナフタレン−2(1H),2′−ピペリジン〕 塩酸塩]",800 nM,90 nM,,890 nM,
"COc1ccc2c(c1)CCC1(CCCCN1CCN1CCN(c3ccc(F)cc3)CC1)C2 (centres unmarked) [実施例7−5, 1′−〔2−(4−(4−フルオロフェニル)ピペラジン−1−イル)エチル〕−3,4−ジヒドロ−6−メトキシスピロ〔ナフタレン−2(1H),2′−ピペリジン〕 2塩酸塩]",30 nM,3350 nM,87%,,
"CCCN1CCCCC12CCc1cc(OCc3ccccc3OC)ccc1C2 (centres unmarked) [実施例9−23, 3,4−ジヒドロ−6−(2−メトキシフェニルメトキシ)−1′−プロピルスピロ〔ナフタレン−2(1H),2′−ピペリジン〕 塩酸塩]",,,,2830 nM,
"COc1ccc2c(c1)CCC1(CCCCN1CCCCN1C(=O)c3ccccc3C1=O)C2 (centres unmarked) [実施例5−11, 3,4−ジヒドロ−6−メトキシ−1′−(4−フタルイミドブチル)スピロ〔ナフタレン−2(1H),2′−ピペリジン〕 塩酸塩]",4.5 nM,500 nM,,,
"CCCN1CCCCC12CCc1cc(OCc3ccccc3)ccc1C2 (centres unmarked) [実施例9−1, 3,4−ジヒドロ−6−フェニルメトキシ−1’−プロピルスピロ〔ナフタレン−2(1H),2’−ピペリジン〕 塩酸塩]",,,,280 nM,
"COc1cccc(N2CCN(CCN3CCCCC34CCc3cc(OC)ccc3C4)CC2)c1 (centres unmarked) [実施例7−1, 3,4−ジヒドロ−6−メトキシ−1’−〔2−(4−(3−メトキシフェニル)ピペラジン−1−イル)エチル〕スピロ〔ナフタレン−2(1H),2’−ピペリジン〕 2塩酸塩]",22 nM,4770 nM,90%,,
"CCCN1CCCCC12CCc1cc(OCc3ccsc3)ccc1C2 (centres unmarked) [実施例9−45, 3,4−ジヒドロ−1′−プロピル−6−(3−チエニルメトキシ)スピロ〔ナフタレン−2(1H),2′−ピペリジン〕 塩酸塩]",,,,,66 nM
"COc1ccc2c(c1)CCC1(CCCCN1CCN1CCN(c3ccccc3Cl)CC1)C2 (centres unmarked) [実施例7−3, 1′−〔2−(4−(2−クロロフェニル)ピペラジン−1−イル)エチル〕−3,4−ジヒドロ−6−メトキシスピロ〔ナフタレン−2(1H),2′−ピペリジン〕 2塩酸塩]",,,95%,,
"COc1ccc2c(c1)CC[C@@]1(CCCCN1CCN1CCN(c3cccc(C(F)(F)F)c3)CC1)C2 [実施例30−2, (S)−(−)−1’−〔2−4−(3−トリフルオロメチルフェニル)ピペラジン−1−イル)エチル〕−3,4−ジヒドロ−6−メトキシスピロ〔ナフタレン−2(1H),2’−ピペリジン〕 2塩酸塩]",9.5 nM,280 nM,,,
"COc1ccc2c(c1)CCC1(CCCCN1CCN1CCC(c3ccccc3)CC1)C2 (centres unmarked) [実施例7−9, 3,4−ジヒドロ−6−メトキシ−1′−〔2−(4−フェニルピペリジン−1−イル)エチル〕スピロ〔ナフタレン−2(1H),2′−ピペリジン〕 2塩酸塩]",,,109%,,
"CCCN1CCCCC12CCc1cc(OCc3cccc(C#N)c3)ccc1C2 (centres unmarked) [実施例9−9, 6−(3−シアノフェニルメトキシ)−3,4−ジヒドロ−1′−プロピルスピロ〔ナフタレン−2(1H),2′−ピペリジン〕 塩酸塩]",280 nM,62 nM,,,
"CCCN1CCCCC12CCc1cc(OCc3ccc(Cl)cc3Cl)ccc1C2 (centres unmarked) [実施例9−22, 6−(2,4−ジクロロフェニルメトキシ)−3,4−ジヒドロ−1′−プロピルスピロ〔ナフタレン−2(1H),2′−ピペリジン〕 塩酸塩]",190 nM,67 nM,,,
"CCCN1CCCCC12CCc1cc(OCc3cccc(Cl)c3)ccc1C2 (centres unmarked) [実施例9−7, 6−(3−クロロフェニルメトキシ)−3,4−ジヒドロ−1′−プロピルスピロ〔ナフタレン−2(1H),2′−ピペリジン〕 塩酸塩]",700 nM,59 nM,,1630 nM,
